According to PubChem BioAssay (NCI):
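At the GI50, growth is halved. TGI marks complete inhibition of growth.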

Columns and labels:
Assay in all cases: NCI-60 cell line screen, 384-well format
U251 glioblastoma = test system: U251 glioblastoma
SR leukemia = test system: SR leukemia
SK-MEL-5 melanoma = test system: SK-MEL-5 melanoma
MDA-MB-435 melanoma = test system: MDA-MB-435 melanoma
HT29 colon = test system: HT29 colon
HOP-62 NSCLC = test system: HOP-62 NSCLC
IGROV1 ovarian = test system: IGROV1 ovarian
HS 578T breast = test system: HS 578T breast
SNB-19 CNS = test system: SNB-19 CNS
OVCAR-8 ovarian = test system: OVCAR-8 ovarian
DU-145 prostate = test system: DU-145 prostate
MDA-MB-468 breast = test system: MDA-MB-468 breast
MOLT-4 leukemia = test system: MOLT-4 leukemia
RXF 393 renal = test system: RXF 393 renal
PC-3 prostate = test system: PC-3 prostate
UO-31 renal = test system: UO-31 renal
UACC-257 melanoma = test system: UACC-257 melanoma
LOX IMVI melanoma = test system: LOX IMVI melanoma
NCI-H23 lung = test system: NCI-H23 lung
A549 NSCLC = test system: A549 NSCLC
EKVX NSCLC = test system: EKVX NSCLC
OVCAR-3 ovarian = test system: OVCAR-3 ovarian
NCI-H460 NSCLC = test system: NCI-H460 NSCLC
SF-539 CNS = test system: SF-539 CNS
MALME-3M melanoma = test system: MALME-3M melanoma
BT-549 breast = test system: BT-549 breast
UACC-62 melanoma = test system: UACC-62 melanoma
NCI/ADR-RES ovarian = test system: NCI/ADR-RES ovarian
NCI-H522 lung = test system: NCI-H522 lung
TK-10 renal = test system: TK-10 renal
SK-MEL-28 melanoma = test system: SK-MEL-28 melanoma
SW-620 colon = test system: SW-620 colon
SNB-75 CNS = test system: SNB-75 CNS
SF-295 CNS = test system: SF-295 CNS
T-47D breast = test system: T-47D breast
HCT-116 colon = test system: HCT-116 colon
786-0 renal = test system: 786-0 renal
CAKI-1 renal = test system: CAKI-1 renal
NCI-H322M lung = test system: NCI-H322M lung
OVCAR-5 ovarian = test system: OVCAR-5 ovarian
A498 renal = test system: A498 renal
MCF7 breast = test system: MCF7 breast
M14 melanoma = test system: M14 melanoma
COLO 205 colon = test system: COLO 205 colon
HCT-15 colon = test system: HCT-15 colon
SF-268 CNS = test system: SF-268 CNS
HL-60(TB) leukemia = test system: HL-60(TB) leukemia
HOP-92 NSCLC = test system: HOP-92 NSCLC
K-562 leukemia = test system: K-562 leukemia
SN12C renal = test system: SN12C renal
OVCAR-4 ovarian = test system: OVCAR-4 ovarian
ACHN renal = test system: ACHN renal
SK-OV-3 ovarian = test system: SK-OV-3 ovarian
CCRF-CEM leukemia = test system: CCRF-CEM leukemia
NCI-H226 lung = test system: NCI-H226 lung
SK-MEL-2 melanoma = test system: SK-MEL-2 melanoma
MDA-MB-231 breast = test system: MDA-MB-231 breast
KM12 colon = test system: KM12 colon
HCC-2998 colon = test system: HCC-2998 colon

Cc1nc(N2CCC3(CC2)CO[C@@H](C)[C@H]3N)c(CO)nc1Sc1ccnc(N)c1Cl
GI50 (U251 glioblastoma): 15.6 µM | TGI (U251 glioblastoma): > 100 µM | GI50 (SR leukemia): 9.08 µM | TGI (SR leukemia): 21.5 µM | GI50 (SK-MEL-5 melanoma): 16 µM | TGI (SK-MEL-5 melanoma): 31.3 µM | GI50 (MDA-MB-435 melanoma): > 100 µM | TGI (MDA-MB-435 melanoma): > 100 µM | GI50 (HT29 colon): 27.5 µM | TGI (HT29 colon): 71.8 µM | GI50 (HOP-62 NSCLC): 54 µM | TGI (HOP-62 NSCLC): > 100 µM | GI50 (IGROV1 ovarian): 728 nM | TGI (IGROV1 ovarian): > 100 µM | GI50 (HS 578T breast): 39.4 µM | TGI (HS 578T breast): > 100 µM | GI50 (SNB-19 CNS): 42.1 µM | TGI (SNB-19 CNS): > 100 µM | GI50 (OVCAR-8 ovarian): 17.2 µM | TGI (OVCAR-8 ovarian): 50.5 µM | GI50 (DU-145 prostate): 97.5 µM | TGI (DU-145 prostate): > 100 µM | GI50 (MDA-MB-468 breast): 145 nM | TGI (MDA-MB-468 breast): 1390 nM | GI50 (MOLT-4 leukemia): 27 µM | TGI (MOLT-4 leukemia): > 100 µM | GI50 (RXF 393 renal): 12.5 µM | TGI (RXF 393 renal): 41.5 µM | GI50 (PC-3 prostate): 54.4 µM | TGI (PC-3 prostate): > 100 µM | GI50 (UO-31 renal): 11 µM | TGI (UO-31 renal): > 100 µM | GI50 (UACC-257 melanoma): 19.3 µM | TGI (UACC-257 melanoma): 38.1 µM | GI50 (LOX IMVI melanoma): 35.5 µM | TGI (LOX IMVI melanoma): > 100 µM | GI50 (NCI-H23 lung): 83.8 nM | TGI (NCI-H23 lung): 20.6 µM | GI50 (A549 NSCLC): 97 µM | TGI (A549 NSCLC): > 100 µM | GI50 (EKVX NSCLC): 3.13 µM | TGI (EKVX NSCLC): 92.3 µM | GI50 (OVCAR-3 ovarian): 35.8 µM | TGI (OVCAR-3 ovarian): > 100 µM | GI50 (NCI-H460 NSCLC): 41.8 µM | TGI (NCI-H460 NSCLC): > 100 µM | GI50 (SF-539 CNS): 22.1 µM | TGI (SF-539 CNS): > 100 µM | GI50 (MALME-3M melanoma): 24.2 µM | TGI (MALME-3M melanoma): 54.2 µM | GI50 (BT-549 breast): 17 µM | TGI (BT-549 breast): > 100 µM | GI50 (UACC-62 melanoma): 31.4 µM | TGI (UACC-62 melanoma): > 100 µM | GI50 (NCI/ADR-RES ovarian): 17.7 µM | TGI (NCI/ADR-RES ovarian): > 100 µM | GI50 (NCI-H522 lung): 44 nM | TGI (NCI-H522 lung): 18.5 µM | GI50 (TK-10 renal): 819 nM | TGI (TK-10 renal): > 100 µM | GI50 (SK-MEL-28 melanoma): 40.1 µM | TGI (SK-MEL-28 melanoma): > 100 µM | GI50 (SW-620 colon): 54.6 µM | TGI (SW-620 colon): > 100 µM | GI50 (SNB-75 CNS): 13.4 µM | TGI (SNB-75 CNS): 94.4 µM | GI50 (SF-295 CNS): 79.8 µM | TGI (SF-295 CNS): > 100 µM | GI50 (T-47D breast): 17.5 µM | TGI (T-47D breast): 82.2 µM | GI50 (HCT-116 colon): 37.1 µM | TGI (HCT-116 colon): > 100 µM | GI50 ([…]-0 renal): 29.3 µM | TGI (786-0 renal): > 100 µM | GI50 (CAKI-1 renal): 414 nM | TGI (CAKI-1 renal): > 100 µM | GI50 (NCI-H322M lung): 166 nM | TGI (NCI-H322M lung): > 100 µM | GI50 (OVCAR-5 ovarian): 92.7 µM | TGI (OVCAR-5 ovarian): > 100 µM | GI50 (A498 renal): 1080 nM | TGI (A498 renal): > 100 µM | GI50 (MCF7 breast): 35.1 µM | TGI (MCF7 breast): > 100 µM | GI50 (M14 melanoma): 21.3 µM | TGI (M14 melanoma): 42.6 µM | GI50 (COLO 205 colon): 41.8 µM | TGI (COLO 205 colon): > 100 µM | GI50 (HCT-15 colon): 69.3 µM | TGI (HCT-15 colon): > 100 µM | GI50 (SF-268 CNS): 91.6 µM | TGI (SF-268 CNS): > 100 µM | GI50 (HL-60(TB) leukemia): 15.8 µM | TGI (HL-60(TB) leukemia): 29.5 µM | GI50 (HOP-92 NSCLC): 115 nM | TGI (HOP-92 NSCLC): 12.4 µM | GI50 (K-562 leukemia): 61.9 nM | TGI (K-562 leukemia): 15.7 µM | GI50 (SN12C renal): 8.42 µM | TGI (SN12C renal): > 100 µM | GI50 (OVCAR-4 ovarian): 46.6 µM | TGI (OVCAR-4 ovarian): > 100 µM | GI50 (ACHN renal): 2030 nM | TGI (ACHN renal): > 100 µM | GI50 (SK-OV-3 ovarian): 13 µM | TGI (SK-OV-3 ovarian): > 100 µM | GI50 (CCRF-CEM leukemia): 24.5 µM | TGI (CCRF-CEM leukemia): 60.2 µM | GI50 (NCI-H226 lung): 714 nM | TGI (NCI-H226 lung): > 100 µM | GI50 (SK-MEL-2 melanoma): 34.7 µM | TGI (SK-MEL-2 melanoma): 78.1 µM | GI50 (MDA-MB-231 breast): > 100 µM | TGI (MDA-MB-231 breast): > 100 µM | GI50 (KM12 colon): 321 nM | TGI (KM12 colon): > 100 µM | GI50 (HCC-2998 colon): 35.5 µM | TGI (HCC-2998 colon): 95 µM
